Laboratory results from patent publication US8597616B2 (priority 2007, dated 2013).

How the values were obtained:
normovolemic swine model = settings: in vivo
[1] = tested on: swine model of cardiac arrest; settings: in vivo

CNC[C@H](O)c1ccc(O)c(O)c1 [epinephrine, (R)-4-(1-hydroxy-2-(methylamino)ethyl)benzene-1,2-diol]
increase of MAP over baseline (normovolemic swine model): more than 60 mmHg
time post injection at which increases in MAP were detected (normovolemic swine model): 10 to 20 s
time post injection to peak MAP (normovolemic swine model): ≤ 60 s
sustained MAP (normovolemic swine model; 0.4 mg/kg): more than 60 mmHg
time post-injection at which an increase in MAP was detected (normovolemic swine model; iv): 30 s
time from administration until absorbed and placed into the circulating blood (normovolemic swine model; swine): 10 to 20 s
peak MAP [1]: 90 mmHg
sustained pressure over baseline [1]: greater than 50 mmHg
time post injection at which increases in MAP were detected [1]: 10 to 20 s
time post injection to peak MAP [1]: ≤ 60 s
time to MAP peak at sustained pressure over baseline [1]: ≤ 80 s
time until physiological effects (increase in MAP over baseline MAP) were detected [1]: < 20 seconds
time until rapid and sustained MAP occurred [1]: < 60 s
